Test results as given in patent publication US12090146B2, “Substituted-pyridinyl compounds and uses thereof” (Bionomics Limited, priority 2018, dated 2024).

What was measured:
[1] = molecular target: T1, hKv3.2 (Homo sapiens, UniProt Q96PR1); assay: Automated patch clamp (Patchliner) whole-cell electrophysiology, Kv3.2; assay type: cell-based; settings: 10 μM compound, CHO-K1 cells stably expressing hKv3.2; for activation at 10 µM: % potentiation of peak current at −10 mV voltage step vs vehicle; for Kv3.2 Activity at 10 μM Voltage Shift (mV): voltage shift of the IV curve at V1/2
T1 construct: expressed in transfected cells
T1 sequence (Q96PR1 1-638): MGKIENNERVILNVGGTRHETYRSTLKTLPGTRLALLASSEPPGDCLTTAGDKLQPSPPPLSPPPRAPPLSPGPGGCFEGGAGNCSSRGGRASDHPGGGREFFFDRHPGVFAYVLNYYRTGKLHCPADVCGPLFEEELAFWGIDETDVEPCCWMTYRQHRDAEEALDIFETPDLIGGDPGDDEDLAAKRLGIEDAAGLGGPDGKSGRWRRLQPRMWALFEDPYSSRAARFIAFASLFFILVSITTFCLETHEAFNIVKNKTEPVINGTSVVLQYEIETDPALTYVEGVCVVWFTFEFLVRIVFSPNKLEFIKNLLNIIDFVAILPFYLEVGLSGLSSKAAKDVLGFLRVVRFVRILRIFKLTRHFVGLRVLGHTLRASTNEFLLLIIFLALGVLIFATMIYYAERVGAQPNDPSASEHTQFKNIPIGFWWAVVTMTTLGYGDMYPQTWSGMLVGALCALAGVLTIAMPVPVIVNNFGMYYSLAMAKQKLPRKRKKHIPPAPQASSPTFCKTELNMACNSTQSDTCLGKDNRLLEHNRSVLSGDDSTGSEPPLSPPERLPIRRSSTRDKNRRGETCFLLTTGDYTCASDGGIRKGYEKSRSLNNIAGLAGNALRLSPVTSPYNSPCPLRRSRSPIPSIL
Experimental: (§1) hKv3.1, hKv3.2, hKv3.3, and hKv3.4 were stably expressed in CHO-K1 (Chinese hamster ovary) cells and kept under constant antibiotic selection. For in vitro assays, cells were maintained in appropriate growth medium at 37° C. and 5% CO2 in a humidified incubator.
(§2) hKv3.X expressing cells were plated in T-25 flasks for 3-4 days at 37° C. (no selection antibiotic) prior to use and grown to 80% confluence. Cells were washed twice with PBS (calcium and magnesium free) and detached with a 5-minute treatment at 37° C. with 2-3 mls of Accutase®. Cells were collected, and flask was washed in CHO-SFM II media (Life Technologies Gibco), centrifuged for 2 minutes at ˜110×g and resuspended to obtain a single cell suspension of ˜2-3×10^6 cells/ml.
(§3) The intracellular solution contained the following (in mM): KCl 50, NaCl 10, KF 60, EGTA 20, HEPES 10, adjusted to pH 7.2 with KOH and an osmolarity of 285 mOsmol. Seal enhancer was purchased from Nanion (80 mM NaCl, 3 mM KCl, 10 mM MgCl2, 35 mM CaCl2), 10 mM HEPES, pH7.4, 298 mOsmol. The external solution contained (in mM): NaCl 140, KCl 4, CaCl2) 2, MgCl2 1, HEPES 10, Glucose 5, adjusted to pH7.4 and an osmolarity of 298 mOsmol.
(§4) All compounds were initially tested at 10 uM at a final DMSO concentration of 0.33%. Compounds were dissolved in dimethylsulfoxide (DMSO) at a stock concentration of 30 mM. The compound was further diluted 1:10 to give a stock concentration of 3 mM in DMSO. The final assay solution was diluted 1:300 in External solution to give a final concentration of 10 uM. For the DMSO Control Buffer 30 uL of DMSO was added to 10 mL buffer.
(§5) All electrophysiological recordings were performed at ambient temperature (21-23° C.) using automated patch clamp (Patchliner, Nanion Technologies GmbH) in the whole-cell configuration.
(§6) Cell membrane potentials were held at −80 mV, and currents were evoked by voltage steps (1000 ms duration) from −60 to +60 mV in 10 mV increments. This was performed first with vehicle (0.33% DMSO) and then with 10 uM compound, after a 3-minute incubation period. Data was taken from 4 cells per assay.
(§7) The recordings were analysed and selected using peak current amplitude (>100 pA at the −10 mV voltage step) in the absence of compound to eliminate unsuitable cells from analysis. Peak current amplitude was measured and recorded for each voltage step and data was normalised to the maximum current at +60 mV. The normalised Kv3.x currents following addition of the compound were then compared with the currents recorded prior to compound addition (vehicle control). Positive modulation was determined as % potentiation at the voltage step of −10 mV=[current (cmpd)/current (veh)]*100−100. % potentiation ≥50% was considered acceptable. In addition, voltage shift of the IV curve at V1/2 was measured. V1/2 of ≥−5 mV was also considered acceptable. IV curves were plotted in GraphPad Prism (software version 6.0) and fitted with a Boltzmann equation, where V1/2 is the voltage at half-maximal activation.

[2] = molecular target: T2, hKv3.1 (Homo sapiens, UniProt P48547); assay: Automated patch clamp (Patchliner) whole-cell electrophysiology, Kv3.1; assay type: cell-based; settings: 10 μM compound, CHO-K1 cells stably expressing hKv3.1; for Kv3.1 Activity at 10 μM Potentiation (%): % potentiation of peak current at −10 mV voltage step vs vehicle; for Kv3.1 Activity at 10 μM Voltage Shift (mV): voltage shift of the IV curve at V1/2
T2 construct: expressed in transfected cells
T2 sequence (P48547 1-511): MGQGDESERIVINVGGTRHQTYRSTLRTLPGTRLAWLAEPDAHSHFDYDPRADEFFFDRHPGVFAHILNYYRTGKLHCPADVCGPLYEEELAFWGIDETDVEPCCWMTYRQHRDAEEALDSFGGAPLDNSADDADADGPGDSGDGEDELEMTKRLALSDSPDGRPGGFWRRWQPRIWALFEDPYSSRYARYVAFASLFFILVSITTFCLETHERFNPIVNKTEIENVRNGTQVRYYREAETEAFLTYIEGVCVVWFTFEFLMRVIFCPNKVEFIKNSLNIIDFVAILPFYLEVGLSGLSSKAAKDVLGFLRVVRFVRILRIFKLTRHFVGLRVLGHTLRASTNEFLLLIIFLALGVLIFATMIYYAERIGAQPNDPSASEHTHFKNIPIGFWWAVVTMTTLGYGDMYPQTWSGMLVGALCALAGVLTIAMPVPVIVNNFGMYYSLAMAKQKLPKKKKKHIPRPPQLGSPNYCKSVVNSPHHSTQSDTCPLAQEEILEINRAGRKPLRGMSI
Experimental: as §1, §2, §3, §4, §5, §6, §7

SMILES	activation at 10 µM [1] [%]	Kv3.2 Activity at 10 μM Voltage Shift (mV) [1] [mV]	Kv3.1 Activity at 10 μM Potentiation (%) [2] [%]	Kv3.1 Activity at 10 μM Voltage Shift (mV) [2] [mV]
COc1cc(Oc2cc(N3C(=O)NC(C)(C)C3=O)ccn2)ccc1C [Example 1, 3-[2-(3-methoxy-4-methyl-phenoxy)-4-pyridyl]-5,5-dimethyl-imidazolidine-2,4-dione]	21	−1.23	53	−2.9
CC1(C)NC(=O)N(c2ccnc(Oc3ccc4c(c3)CCC4)c2)C1=O [Example 3, 3-(2-indan-5-yloxy-4-pyridyl)-5,5-dimethyl-imidazolidine-2,4-dione]	66	−6.71	58	−4.65
COc1cc(Oc2cc(N3C(=O)NC(C)(C)C3=O)ccn2)ccc1C(F)(F)F [Example 4, 3-[2-[3-methoxy-4-(trifluoromethyl)phenoxy]-4-pyridyl]-5,5-dimethyl-imidazolidine-2,4-dione]	14	−4.12	36	−5.13
COc1cc(Oc2cc(N3C(=O)NC(C)(C)C3=O)ccn2)ccc1F [Example 6, 3-[2-[3-methoxy-4-fluorophenoxy]-4-pyridyl]-5,5-dimethyl-imidazolidine-2,4-dione]	25	−3.18		
COc1cc(Oc2cc(N3C(=O)NC(C)(C)C3=O)ccn2)ccc1Cl [Example 8, 3-[2-(4-chloro-3-methoxy-phenoxy)-4-pyridyl]-5,5-dimethyl-imidazolidine-2,4-dione]	22	−2.39	32	−4.09
CC1(C)NC(=O)N(c2ccnc(Oc3ccc4c(c3)OC(F)(F)O4)c2)C1=O [Example 9, 3-[2-[(2,2-difluoro-1,3-benzodioxol-5-yl)oxy]-4-pyridyl]-5,5-dimethyl-imidazolidine-2,4-dione]	30	−3.92	80	−6.49
CC[C@@]1(C)NC(=O)N(c2ccnc(Oc3ccc(C)c(OC)c3)c2)C1=O [Example 10, (5R)-5-ethyl-3-[2-(3-methoxy-4-methyl-phenoxy)-4-pyridyl]-5-methyl-imidazolidine-2,4-dione]	21	−2.67	72	−5.46

The next lines start with the values.

activation at 10 µM [1] [%]	Kv3.2 Activity at 10 μM Voltage Shift (mV) [1] [mV]	Kv3.1 Activity at 10 μM Potentiation (%) [2] [%]	Kv3.1 Activity at 10 μM Voltage Shift (mV) [2] [mV]	SMILES
48	−4.48	27	−3.9	CC[C@@]1(C)NC(=O)N(c2ccnc(Oc3ccc4c(c3)CCC4)c2)C1=O [Example 13, (5R)-5-ethyl-3-(2-indan-5-yloxy-4-pyridyl)-5-methyl-imidazolidine-2,4-dione]
47	−3.63			CC[C@@]1(C)NC(=O)N(c2ccnc(Oc3ccc4c(c3)OC(F)(F)O4)c2)C1=O [Example 16, (5R)-3-[2-[(2,2-difluoro-1,3-benzodioxol-5-yl)oxy]-4-pyridyl]-5-ethyl-5-methyl-imidazolidine-2,4-dione]
42	−5.52			COc1cc(Oc2cc(N3C(=O)NC4(CCCCC4)C3=O)ccn2)ccc1C [Example 24, 3-[2-(3-methoxy-4-methyl-phenoxy)-4-pyridyl]-1,3-diazaspiro[4.5]decane-2,4-dione]
-4	2.06	26	−0.83	COc1cc(Oc2cc(N3C(=O)NC4(CCN(C)CC4)C3=O)ccn2)ccc1C [Example 30, 3-[2-(3-methoxy-4-methyl-phenoxy)-4-pyridyl]-8-methyl-1,3,8-triazaspiro[4.5]decane-2,4-dione]
22	−2.72	64	−5.74	COc1cc(Oc2cc(N3C(=O)NC4(CCCC4)C3=O)ccn2)ccc1C [Example 33, 3-[2-(3-methoxy-4-methyl-phenoxy)-4-pyridyl]-1,3-diazaspiro[4.4]nonane-2,4-dione]
		73	−3	CC[C@@]1(C)NC(=O)N(c2cccc(Oc3cccc4c3CCC4)n2)C1=O [Example 69, (5R)-5-ethyl-3-(6-indan-4-yloxy-2-pyridyl)-5-methyl-imidazolidine-2,4-dione]
		33	−4.25	CC[C@]1(C)NC(=O)N(c2cccc(Oc3ccc(C)c(OC)c3)n2)C1=O [Example 72, (5S)-5-ethyl-3-[6-(3-methoxy-4-methyl-phenoxy)-2-pyridyl]-5-methyl-imidazolidine-2,4-dione]
		26	−1.61	COc1cc(Oc2cccc(N3C(=O)NC(C)(C)C3=O)n2)ccc1C [Example 73, 3-[6-(3-methoxy-4-methyl-phenoxy)-2-pyridyl]-5,5-dimethyl-imidazolidine-2,4-dione]
		12	−0.95	CC(C)c1cc(Oc2cccc(N3C(=O)NC(C)(C)C3=O)n2)ccc1C#N [Example 77, 4-[[6-(4,4-dimethyl-2,5-dioxo-imidazolidin-1-yl)-2-pyridyl]oxy]-2-isopropyl-benzonitrile]
28	−2.58			CC[C@@]1(C)NC(=O)N(c2ccc(F)c(Oc3ccc(C)c(OC)c3)n2)C1=O [Example 89, (5R)-5-ethyl-3-[5-fluoro-6-(3-methoxy-4-methyl-phenoxy)-2-pyridyl]-5-methyl-imidazolidine-2,4-dione]
